Assay results: US6057333A, “Discorhabdin compounds and methods of use” (Harbor Branch Oceanographic Institution, Inc., priority 1998, dated 2000)
In brackets after ≈: the same amount, converted by molar mass.

Experiments:
CPP32 = target: T1, CPP32 (Homo sapiens, UniProt P42574); assay: Caspase inhibition (CPP32, Ac-DEVD-pNA substrate); format: biochemical; conditions: Ac-DEVD-pNA 25 μM, pH 7.5, 30 degrees C., 30 minutes
T1 construct: BASF, Worchester, Mass; (gift, not a purchase)
T1 sequence (P42574 29-175 limits assumed): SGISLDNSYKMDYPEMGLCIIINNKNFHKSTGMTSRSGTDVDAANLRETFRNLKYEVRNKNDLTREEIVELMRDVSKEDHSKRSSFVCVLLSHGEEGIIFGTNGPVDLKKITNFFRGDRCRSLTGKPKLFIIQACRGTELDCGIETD
T1 sequence (P42574 176-277 limits assumed): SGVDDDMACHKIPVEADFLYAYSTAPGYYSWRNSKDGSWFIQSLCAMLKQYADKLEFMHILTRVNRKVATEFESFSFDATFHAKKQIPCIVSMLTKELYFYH
Protocol: Test samples were aliquoted into 96 well microtiter plates and allowed to air dry. The stock CPP32 enzyme (kindly supplied by BASF, Worchester, Mass.) was diluted by adding 10 μl of the enzyme to 17 ml of reaction buffer (50 mM Hepes pH 7.5; 10% glycerol; 5 mM Dithiothreitol; 0.5 mM EDTA). A volume of 180 μl of the diluted enzyme was added to wells containing the dried test samples, or to empty wells (control). The contents of the microtiter wells were mixed by shaking on a plate shaker. Plates were incubated at 30 degrees C. for 5 minutes. […] Controls for each plate consisted of an inhibitor control (50 nM DEVD-CHO final concentration); positive control (enzyme and substrate) and negative control (reaction buffer and substrate). The plates were covered with aluminum foil and mixed using a plate shaker for 5 minutes then incubated at 30 degrees C. for 30 minutes. Plates were read using on a plate reader with absorbance measured at 405 nm. Data was expressed as percent inhibition by comparing the absorbance values of test samples with those of the positive control (no sample).

calcineurin = target: T2, calcineurin (Bos taurus, UniProt P48452); assay: Calcineurin assay (p-nitrophenylphosphate phosphatase activity); format: biochemical, bovine; conditions: pH 7.5, 30° C., 60 min
T2 construct: Calcineurin was prepared from bovine brain; from tissue; host or cells: bovine brain
Protocol: Calmodulin was prepared from bovine brain according to the method of Wallace et al. ([1983] Meth. Enzymol. 102:39-47). The calmodulin was either used directly or coupled to sepharose-4B to form the calmodulin-sepharoseaffinity column necessary for the isolation of calcineurin. Calcineurin was prepared from bovine brain by the method of Tallant et al. ([1983] Meth. Enzymol. 102:244-286), concentrated, aliquoted and stored at -80° C.
Calcineurin activity was assayed in 96-well microtiter plates in a final volume of 50 μl. Each well contained 50 mM Tris-HCl pH 7.5, 0.5 mM MnCl2, 0.05 mM CaCl2, 1 mM DTT, 50 mM p-nitrophenylphosphate (pNPP), 0.3 μg calcineurin, a five-fold excess of calmodulin, and either test samples or control compounds. Plates were incubated at 30° C. for 60 min. Liberated p-nitrophenol was determined by the change in absorbance at 405 nm.

P388 cells = assay: P388 antiproliferative (MTT) assay; format: cell-based; conditions: Mus musculus, 48 hr exposure
Protocol: (§1) P388 cells are obtained from Dr. J. Mayo, National Cancer Institute, Bethesda, Md., and A549 cells are obtained from American Type Culture Collection, Rockville, Md. All cell lines are maintained in Roswell Park Memorial Institute (RPMI) medium 1640 supplemented with 10% horse serum. All cell lines are cultured in plastic tissue culture flasks and kept in an incubator at 37° C. in humidified air containing 5% CO2. Prior to testing, antibiotic-free stock cultures of each of the cell lines are subcultured to 10^6 cells/ml by dilution in fresh growth medium at 2 to 3 day intervals.
(§2) To assess the antiproliferative effects of agents against the P388 cell line, 200 μl cultures (96-well tissue culture plates, Nunc, Denmark) are established at 1×10^5 cells/ml in drug-free medium or medium containing the test agent at 10.0, 1.0, 0.10 and 0.010 μg/ml. Solvent for all dilutions ethanol. All experimental cultures are initiated in medium containing Gentamycin sulfate (50 μg/ml; Schering Corporation, Kenilworth, N.J.). After48 hr exposures, P388 cells are enumerated using 3-[4,5-Dimethylthiazol-2-yl]-2,5-diphenyltetrazolium bromide (MTT).
To quantitate the effects on cell proliferation and resulting IC50 values, 75 μl of warm growth media containing 5 mg/ml MTT is added to each well, cultures returned to the incubator, and left undisturbed for 90 minutes. […]

A549 cells = assay: A549 antiproliferative (MTT) assay; format: cell-based; conditions: Homo sapiens, additional 48 hr exposure prior to MTT addition
Protocol: as §1, §2
[…] Results are expressed as percent inhibition compared to the negative (no drug) control. Positive drug controls are included to monitor drug sensitivity of each of the cell lines. […]

T2 sequence (P63099 2-170, other chains not shown): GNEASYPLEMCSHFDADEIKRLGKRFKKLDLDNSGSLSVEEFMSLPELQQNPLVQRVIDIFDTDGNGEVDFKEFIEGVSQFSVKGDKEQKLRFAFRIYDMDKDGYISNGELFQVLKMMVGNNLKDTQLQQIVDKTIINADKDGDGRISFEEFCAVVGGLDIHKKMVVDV

Cn1cc2c3c1C(=O)C1=C(C3=NCC2)C2(C=C(Br)C(=O)C(Br)=C2)CCN1 [discorhabdin P]
IC50 (CPP32): 0.37 µg/mL (≈ 0.775 µM) | inhibition at 0.5 µg/mL (calcineurin; at 0.5 μg/ml): 33% | inhibition at 5 µg/mL (calcineurin; at 5 μg/ml): 64% | IC50 (calcineurin): 1150 nM | IC50 (P388 cells): 0.025 µg/mL | IC50 (A549 cells): 0.41 µg/mL
